These results are taken from ChEMBL document CHEMBL4152254, “Pyridinyl- and pyridazinyl-3,6-diazabicyclo[3.1.1]heptane-anilines: Novel selective ligands with subnanomolar affinity for α4β2 nACh receptors” (Eur J Med Chem, 2018).

Experiment [1] deals with Neuronal acetylcholine receptor; alpha4/beta2 (Rattus norvegicus, UniProt P09483+P12390). The experiment in a line: Displacement of [3H]epibatidine from alpha4beta2 nAChR in rat cortex membranes. Format: cell membranes. (In general: In a radioligand displacement assay an active substance lowers the binding of a labelled ligand.)
Chain of Neuronal acetylcholine receptor; alpha4/beta2 (Rattus norvegicus, UniProt P09483+P12390) (P09483 whole entry): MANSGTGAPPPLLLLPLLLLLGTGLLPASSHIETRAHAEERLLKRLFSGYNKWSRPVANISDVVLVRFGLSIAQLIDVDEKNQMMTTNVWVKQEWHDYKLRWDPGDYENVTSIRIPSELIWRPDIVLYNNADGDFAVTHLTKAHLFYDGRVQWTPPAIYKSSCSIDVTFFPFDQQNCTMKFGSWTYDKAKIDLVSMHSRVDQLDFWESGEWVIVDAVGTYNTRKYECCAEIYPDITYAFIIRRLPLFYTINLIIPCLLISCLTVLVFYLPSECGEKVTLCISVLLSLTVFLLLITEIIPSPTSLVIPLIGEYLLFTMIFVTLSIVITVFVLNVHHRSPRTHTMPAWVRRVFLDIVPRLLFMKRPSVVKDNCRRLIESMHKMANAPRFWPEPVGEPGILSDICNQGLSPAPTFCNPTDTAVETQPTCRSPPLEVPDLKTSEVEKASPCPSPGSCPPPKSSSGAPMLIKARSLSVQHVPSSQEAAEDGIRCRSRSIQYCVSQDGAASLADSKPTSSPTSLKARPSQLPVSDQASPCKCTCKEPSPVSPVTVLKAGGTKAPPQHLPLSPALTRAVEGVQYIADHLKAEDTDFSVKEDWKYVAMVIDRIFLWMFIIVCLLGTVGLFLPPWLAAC
Chain of Neuronal acetylcholine receptor; alpha4/beta2 (Rattus norvegicus, UniProt P09483+P12390) (P12390 whole entry): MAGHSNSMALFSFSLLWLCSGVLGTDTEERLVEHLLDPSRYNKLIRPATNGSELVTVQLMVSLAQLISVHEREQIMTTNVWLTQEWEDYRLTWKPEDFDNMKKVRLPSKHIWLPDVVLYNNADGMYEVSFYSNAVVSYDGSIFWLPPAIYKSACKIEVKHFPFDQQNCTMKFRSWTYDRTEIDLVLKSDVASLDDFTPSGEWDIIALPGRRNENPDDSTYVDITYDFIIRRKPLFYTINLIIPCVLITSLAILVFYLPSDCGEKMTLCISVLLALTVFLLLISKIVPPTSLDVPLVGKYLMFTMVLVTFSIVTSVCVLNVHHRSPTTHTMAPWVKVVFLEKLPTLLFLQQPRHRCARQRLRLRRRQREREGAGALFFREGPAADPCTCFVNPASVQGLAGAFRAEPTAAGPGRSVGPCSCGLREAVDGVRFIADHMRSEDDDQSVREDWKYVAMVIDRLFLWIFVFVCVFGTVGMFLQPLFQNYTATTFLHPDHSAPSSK
The target in experiment [2] is Neuronal acetylcholine receptor subunit alpha-7 (Rattus norvegicus, UniProt Q05941). Briefly: Displacement of [125I]alpha-bungarotoxin from alpha7 nAChR in rat hippocampal membranes. In kind it is cell membranes.
Chain of Neuronal acetylcholine receptor subunit alpha-7 (Q05941 whole entry): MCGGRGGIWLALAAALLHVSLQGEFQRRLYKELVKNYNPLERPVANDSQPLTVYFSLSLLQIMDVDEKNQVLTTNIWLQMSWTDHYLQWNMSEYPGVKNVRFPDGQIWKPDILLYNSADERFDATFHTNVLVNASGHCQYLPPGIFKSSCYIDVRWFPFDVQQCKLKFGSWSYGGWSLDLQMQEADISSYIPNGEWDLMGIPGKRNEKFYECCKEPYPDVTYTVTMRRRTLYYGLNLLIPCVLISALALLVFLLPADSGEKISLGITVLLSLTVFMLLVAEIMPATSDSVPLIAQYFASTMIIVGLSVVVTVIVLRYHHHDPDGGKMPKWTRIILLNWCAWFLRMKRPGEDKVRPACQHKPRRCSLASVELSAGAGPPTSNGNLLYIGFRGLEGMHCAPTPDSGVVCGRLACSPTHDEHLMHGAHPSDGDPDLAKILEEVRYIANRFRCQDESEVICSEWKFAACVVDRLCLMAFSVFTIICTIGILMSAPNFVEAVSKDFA
A further experiment is filed under the species Rattus norvegicus. Briefly: Selectivity ratio of Ki for alpha7 nAChR in rat hippocampal membranes to Ki for alpha4beta2 nAChR in rat cortex membranes. In kind it is cell membranes.
Experiment [3] is described as follows: Selectivity ratio of Ki for human alpha3beta4 nAChR expressed in HEK293 cell membranes to Ki for alpha4beta2 nAChR in rat cortex membranes. Format: cell-based.
For experiment [4], the target named is T1, Neuronal acetylcholine receptor; alpha3/beta4 (Homo sapiens, UniProt P30926+P32297). Briefly: Displacement of [3H]epibatidine from human alpha3beta4 nAChR expressed in HEK293 cell membranes.
T1 sequence (P30926 whole entry): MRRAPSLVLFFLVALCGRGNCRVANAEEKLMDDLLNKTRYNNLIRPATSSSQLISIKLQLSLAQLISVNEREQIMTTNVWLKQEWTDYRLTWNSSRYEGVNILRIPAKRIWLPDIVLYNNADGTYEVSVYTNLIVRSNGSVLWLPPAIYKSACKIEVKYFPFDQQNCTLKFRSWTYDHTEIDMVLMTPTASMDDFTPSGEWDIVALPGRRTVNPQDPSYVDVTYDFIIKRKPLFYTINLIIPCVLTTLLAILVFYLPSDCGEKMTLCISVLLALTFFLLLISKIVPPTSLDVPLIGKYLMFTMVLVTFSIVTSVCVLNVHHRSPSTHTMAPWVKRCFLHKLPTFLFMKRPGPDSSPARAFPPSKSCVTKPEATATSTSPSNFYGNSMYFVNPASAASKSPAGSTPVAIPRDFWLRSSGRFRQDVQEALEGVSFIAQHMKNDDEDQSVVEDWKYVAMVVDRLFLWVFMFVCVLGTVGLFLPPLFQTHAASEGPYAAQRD
T1 sequence (P32297 whole entry): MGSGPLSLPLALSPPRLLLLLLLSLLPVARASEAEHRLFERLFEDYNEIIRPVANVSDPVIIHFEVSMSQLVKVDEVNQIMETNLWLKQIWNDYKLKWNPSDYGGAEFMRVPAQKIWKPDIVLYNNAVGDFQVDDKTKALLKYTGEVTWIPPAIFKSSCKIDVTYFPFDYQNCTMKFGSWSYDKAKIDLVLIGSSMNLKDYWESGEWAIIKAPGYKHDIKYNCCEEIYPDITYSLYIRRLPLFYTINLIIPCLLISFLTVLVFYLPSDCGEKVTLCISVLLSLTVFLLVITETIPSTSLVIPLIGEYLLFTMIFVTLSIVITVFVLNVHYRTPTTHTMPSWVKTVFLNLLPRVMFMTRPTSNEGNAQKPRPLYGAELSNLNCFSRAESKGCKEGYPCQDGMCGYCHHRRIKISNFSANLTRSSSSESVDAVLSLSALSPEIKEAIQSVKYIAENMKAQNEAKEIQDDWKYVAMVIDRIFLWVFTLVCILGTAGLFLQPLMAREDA
In experiment [5] the target is T1, Neuronal acetylcholine receptor; alpha3/beta4. The experiment in a line: Agonist activity at human alpha3beta4 nAChR expressed in rat GH4C1 cells assessed as inward channel current amplitude at -70 mV holding potential by whole cell electrophysiology method. In kind it is cell-based.
Experiment [6] addresses T2, Neuronal acetylcholine receptor; alpha4/beta2 (Homo sapiens, UniProt P17787+P43681). The experiment in a line: Agonist activity at human alpha4beta2 nAChR expressed in rat GH4C1 cells assessed as inward channel current amplitude at 100 uM at -70 mV holding potential by whole cell electrophysiology method relative to acetylcholine. In kind it is cell-based.
Experiment [7] concerns the target T1, Neuronal acetylcholine receptor; alpha3/beta4. Briefly: Agonist activity at human alpha3beta4 nAChR expressed in rat GH4C1 cells assessed as inward channel current amplitude at 100 uM at -70 mV holding potential by whole cell electrophysiology method relative to acetylcholine. In kind it is cell-based.
Experiment [8] addresses Neuronal acetylcholine receptor subunit alpha-7 (Homo sapiens) (UniProt P36544). The experiment in a line: Agonist activity at human alpha7 nAChR expressed in rat GH4C1 cells assessed as inward channel current amplitude at 100 uM at -70 mV holding potential by whole cell electrophysiology method. Format: cell-based.
Experiment [9] has as its target T2, Neuronal acetylcholine receptor; alpha4/beta2. The experiment in a line: Agonist activity at human alpha4beta2 nAChR expressed in rat GH4C1 cells assessed as inward channel current amplitude at -70 mV holding potential by whole cell electrophysiology method. In kind it is cell-based.
Experiment [10] shares this target. The experiment in a line: Agonist activity at alpha4beta2 nAChR (unknown origin). In kind it is protein-complex assay.

Calls of active or inactive are those of the source. The rule behind the calls is not given here.

T2 sequence (P17787 whole entry): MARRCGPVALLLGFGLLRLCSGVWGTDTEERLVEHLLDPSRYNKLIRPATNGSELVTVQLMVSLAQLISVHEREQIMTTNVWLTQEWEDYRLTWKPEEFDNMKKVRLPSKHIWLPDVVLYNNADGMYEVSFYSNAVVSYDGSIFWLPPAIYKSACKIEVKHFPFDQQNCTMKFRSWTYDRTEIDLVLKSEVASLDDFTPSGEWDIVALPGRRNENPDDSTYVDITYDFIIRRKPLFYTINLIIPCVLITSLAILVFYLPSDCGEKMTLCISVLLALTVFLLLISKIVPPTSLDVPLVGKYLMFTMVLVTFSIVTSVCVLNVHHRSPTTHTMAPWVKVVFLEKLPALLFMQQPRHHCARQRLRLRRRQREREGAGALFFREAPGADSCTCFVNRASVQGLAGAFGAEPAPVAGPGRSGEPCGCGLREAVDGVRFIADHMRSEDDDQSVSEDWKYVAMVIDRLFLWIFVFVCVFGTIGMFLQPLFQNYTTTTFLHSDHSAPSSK
T2 sequence (P43681 whole entry): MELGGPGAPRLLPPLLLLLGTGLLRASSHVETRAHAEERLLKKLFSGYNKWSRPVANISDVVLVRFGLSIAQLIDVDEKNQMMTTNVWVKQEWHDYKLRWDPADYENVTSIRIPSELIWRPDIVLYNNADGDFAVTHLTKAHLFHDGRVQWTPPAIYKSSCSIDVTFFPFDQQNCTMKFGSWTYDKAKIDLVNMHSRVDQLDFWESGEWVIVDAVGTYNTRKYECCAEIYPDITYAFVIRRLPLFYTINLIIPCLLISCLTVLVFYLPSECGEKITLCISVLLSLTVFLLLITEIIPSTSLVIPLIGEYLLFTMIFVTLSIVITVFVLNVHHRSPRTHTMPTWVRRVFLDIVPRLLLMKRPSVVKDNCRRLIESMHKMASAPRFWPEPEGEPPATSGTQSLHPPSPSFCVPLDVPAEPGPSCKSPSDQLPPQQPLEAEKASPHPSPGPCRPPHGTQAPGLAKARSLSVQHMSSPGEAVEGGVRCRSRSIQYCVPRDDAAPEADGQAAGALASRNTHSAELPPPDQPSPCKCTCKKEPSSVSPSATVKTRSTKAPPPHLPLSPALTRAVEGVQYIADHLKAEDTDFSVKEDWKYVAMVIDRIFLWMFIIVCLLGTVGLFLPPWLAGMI
Chain of Neuronal acetylcholine receptor subunit alpha-7 (Homo sapiens) (P36544 whole entry): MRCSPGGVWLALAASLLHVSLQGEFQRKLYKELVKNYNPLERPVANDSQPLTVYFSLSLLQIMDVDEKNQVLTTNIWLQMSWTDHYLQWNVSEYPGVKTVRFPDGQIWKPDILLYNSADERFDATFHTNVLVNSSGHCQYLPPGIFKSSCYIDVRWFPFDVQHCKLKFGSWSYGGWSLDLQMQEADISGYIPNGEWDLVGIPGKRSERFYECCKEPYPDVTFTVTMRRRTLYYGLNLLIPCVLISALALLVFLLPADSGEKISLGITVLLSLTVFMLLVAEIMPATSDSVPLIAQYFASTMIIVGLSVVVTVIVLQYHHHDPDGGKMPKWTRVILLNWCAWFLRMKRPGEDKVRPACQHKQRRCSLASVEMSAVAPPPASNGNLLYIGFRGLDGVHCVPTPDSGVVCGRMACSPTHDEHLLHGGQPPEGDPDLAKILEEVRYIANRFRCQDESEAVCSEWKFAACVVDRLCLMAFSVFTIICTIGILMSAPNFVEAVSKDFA

One may read the Ki as a dissociation constant, usually derived from enzyme kinetics or from competition with a known ligand. Lower therefore signals a stronger hold on the target. Regarding `Cc1ccc(Nc2ccc(N3CC4CC(C3)N4)nn2)cc1`, the inhibition constant (Ki) in [1] turned out to be 44.3 nM; in [2], 21700 nM. Besides, in the experiment filed under Rattus norvegicus, the Ratio Ki came to 490.

Consider `FC(F)(F)c1ccc(Nc2ccc(N3CC4CC(C3)N4)cn2)cc1`, for which the values for the Ratio Ki (in [3]; in the experiment listed under Rattus norvegicus) were 1 and 413, respectively. Besides, the Ki in experiment [4] was 0.818 nM; in experiment [1], 0.569 nM; in [2], 235 nM.

As to `Clc1ccc(Nc2cncc(N3CC4CC(C3)N4)c2)cc1`, the Ratio Ki in experiment [3] was 10; in the experiment listed under Rattus norvegicus, 983. The Ki in experiment [4] is 1.2 nM; in [1], 0.118 nM; in [2], 116 nM.

For `Clc1ccc(Nc2ccc(N3CC4CC(C3)N4)nn2)cc1`, the inhibition constant Ki in experiment [1] turned out to be 90.4 nM; in [2] it was 17300 nM. In the experiment filed under Rattus norvegicus, the Ratio Ki came to 191.

Consider `FC(F)(F)c1ccc(Nc2cncc(N3CC4CC(C3)N4)c2)cc1`, for which the Ratio Ki stood at 3 in [3] and 499 in the experiment listed under Rattus norvegicus. For the same compound, the Ki in experiment [4] stood at 1.02 nM; in experiment [1], 0.373 nM; in [2], 186 nM.

The EC50 is the concentration that produces a half-maximal response. As usually defined, the Emax is the size of the effect at its maximum, as opposed to the concentration needed. In the case of `COc1ccc(Nc2cncc(N3CC4CC(C3)N4)c2)cc1`, the Ratio Ki in experiment [3] was determined as 37; in the experiment listed under Rattus norvegicus it was 14000. Moreover, the EC50 in experiment [5] came out at 2900 nM; in experiment [9], 1900 nM. In addition, the Ki in experiment [4] stood at 2.2 nM; in experiment [1] it was 0.0598 nM; in experiment [2] it was 837 nM. Besides, the Emax in experiment [6] came to 11%; in [7], 42.3%. For the same compound, the result in experiment [8] was inactive.

For the compound `c1ccc(Nc2cncc(N3CC4CC(C3)N4)c2)cc1`, the Ratio Ki in experiment [3] was found to be 10; in the experiment filed under Rattus norvegicus, 333. The Ki in experiment [4] amounted to 0.799 nM; in [1] it was 0.0807 nM; in [2] it was 26.9 nM.

Regarding `Clc1cccc(Nc2ccc(N3CC4CC(C3)N4)nn2)c1`, the results for the Ki in experiment [1] and in experiment [2] were 1540 nM and 41800 nM, respectively. Besides, the Ratio Ki in the experiment filed under Rattus norvegicus is 27.

As for `O=[N+]([O-])c1ccc(Nc2ccc(N3CC4CC(C3)N4)cn2)cc1`, the Ratio Ki in [3] came out at 14; in the experiment listed under Rattus norvegicus it was 2330. The EC50 in experiment [5] and in [9] was greater than 10000 nM in each case. Also, the results for the Ki in experiment [4], in [1] and in experiment [2] were 25 nM, 1.76 nM and 4100 nM, respectively. Besides, the result in experiment [8] was inactive.

Consider `O=[N+]([O-])c1ccc(Nc2cncc(N3CC4CC(C3)N4)c2)cc1`, for which the values for the Ratio Ki (in [3]; in the experiment listed under Rattus norvegicus) were 30 and 10700, respectively. Also, the Ki in [4] was found to be 0.684 nM; in experiment [1], 0.0225 nM; in experiment [2], 241 nM.

`Clc1ccc(Nc2ccc(N3CC4CC(C3)N4)nn2)cc1Cl`: the Ki in experiment [1] stood at 516 nM; in experiment [2], 5100 nM. In the experiment filed under Rattus norvegicus, the Ratio Ki worked out at 10.

In the case of `Cc1ccc(Nc2cncc(N3CC4CC(C3)N4)c2)cc1`, the results for the Ratio Ki (in experiment [3]; in the experiment filed under Rattus norvegicus) were 9 and 2030, respectively. Moreover, the results for the Ki in experiment [4], in experiment [1] and in experiment [2] were 1.4 nM, 0.148 nM and 300 nM, respectively.

On to `Oc1ccc(Nc2cncc(N3CC4CC(C3)N4)c2)cc1`, for which the Ratio Ki in experiment [3] was found to be 3; in the experiment filed under Rattus norvegicus, 6140. The Ki in experiment [4] amounted to 0.988 nM; in experiment [1], 0.342 nM; in experiment [2], 2100 nM.

In the case of `COc1ccc(Nc2ccc(N3CC4CC(C3)N4)nn2)cc1`, the Ki was determined as 578 nM in experiment [1] and 50200 nM in [2]. For the same compound, in the experiment listed under Rattus norvegicus, the Ratio Ki was 87.

On to `c1cncc(N2C[C@@H]3C[C@H]2CN3)c1`, for which the affinity in [10] corresponds to a Ki of 0.15 nM.

With `Fc1ccc(Nc2ccc(N3CC4CC(C3)N4)cn2)cc1`, the figures for the Ratio Ki (in experiment [3]; in the experiment listed under Rattus norvegicus) were 5 and 546, respectively. The Ki turned out to be 13 nM in experiment [4], 2.38 nM in experiment [1] and 1300 nM in experiment [2].

On to `Fc1ccc(Nc2ccc(N3CC4CC(C3)N4)nn2)cc1`, for which the results for the Ki in experiment [1] and in [2] were 868 nM and 111000 nM, respectively. Further, the Ratio Ki in the experiment filed under Rattus norvegicus was 128.

For the compound `Clc1ccc(N2CC3CCC(C2)N3)nn1`, in experiment [10], the Ki is 4.1 nM.

`c1cncc(N2C[C@H]3C[C@@H]2CN3)c1` had a Ki in experiment [10] of 0.02 nM.

As to `CN(c1ccccc1)c1ccc(N2CC3CC(C2)N3)nn1`, the figures for the inhibitory constant (Ki) in [1] and in experiment [2] were 1430 nM and 101000 nM, respectively. In addition, the Ratio Ki in the experiment filed under Rattus norvegicus is 71.

As for `Oc1ccc(Nc2ccc(N3CC4CC(C3)N4)cn2)cc1`, the Ratio Ki in [3] came out at 23; in the experiment listed under Rattus norvegicus, 310. The results for the inhibitory constant (Ki) in [4], in [1] and in experiment [2] were 165 nM, 7.1 nM and 2200 nM, respectively.

For the compound `Clc1cccc(Nc2ccc(N3CC4CC(C3)N4)cn2)c1`, the figures for the Ratio Ki (in [3]; in the experiment filed under Rattus norvegicus) were 2 and 1500, respectively. The figures for the Ki in experiment [4], in [1] and in experiment [2] were 4.8 nM, 2.2 nM and 3300 nM, respectively.

Regarding `Clc1ccc(Nc2cncc(N3CC4CC(C3)N4)c2)cc1Cl`, the values for the Ki in experiment [1] and in experiment [2] were 1.25 nM and 1900 nM, respectively. The Ratio Ki in the experiment filed under Rattus norvegicus came to 1520.

On to `COc1ccc(Nc2ccc(N3CC4CC(C3)N4)cn2)cc1`, for which the Ratio Ki was 1 in experiment [3] and 412 in the experiment listed under Rattus norvegicus. Moreover, the Ki amounted to 9.03 nM in [4], 7.3 nM in [1] and 3010 nM in experiment [2].

For `Fc1ccc(Nc2cncc(N3CC4CC(C3)N4)c2)cc1`, the Ratio Ki in experiment [3] was 14; in the experiment listed under Rattus norvegicus it was 4850. The Ki is 1.25 nM in experiment [4], 0.091 nM in experiment [1] and 441 nM in [2].

Take `c1cncc(N2CC3CCC(C2)N3)c1`: the Ki in [10] was 0.4 nM.

As for `c1ccc(Nc2ccc(N3CC4CC(C3)N4)nn2)cc1`, the inhibitory constant (Ki) was 441 nM in experiment [1] and 10400 nM in [2]. Moreover, in the experiment listed under Rattus norvegicus, the Ratio Ki was found to be 24.

As to `Clc1cccc(Nc2cncc(N3CC4CC(C3)N4)c2)c1`, the Ratio Ki in experiment [3] amounted to 2360; in the experiment listed under Rattus norvegicus, 9680. Further, the inhibition constant Ki in [4] worked out at 293 nM; in experiment [1], 0.124 nM; in experiment [2], 1200 nM.

As for `O=[N+]([O-])c1ccc(Nc2ccc(N3CC4CC(C3)N4)nn2)cc1`, the Ki in experiment [1] is 86.2 nM; in [2] it was 6900 nM. Besides, the Ratio Ki in the experiment filed under Rattus norvegicus amounted to 80.

Consider `Clc1ccc(Nc2ccc(N3CC4CC(C3)N4)cn2)cc1Cl`, for which the Ratio Ki was 18 in experiment [3] and 887 in the experiment filed under Rattus norvegicus. The values for the Ki in experiment [4], in [1] and in experiment [2] were 40.9 nM, 2.3 nM and 2040 nM, respectively.

The compound `Clc1ccc(N2CC3CC2CN3)cn1` (centres undefined) had a Ki in experiment [10] of 0.018 nM.

Regarding `CN(c1ccccc1)c1cncc(N2CC3CC(C2)N3)c1`, the Ki in experiment [1] was found to be 2.06 nM; in experiment [2], 317 nM. In addition, in the experiment filed under Rattus norvegicus, the Ratio Ki came to 154.

Turning to `Cc1ccc(Nc2ccc(N3CC4CC(C3)N4)cn2)cc1`, the Ki in [1] turned out to be 52.1 nM; in [2] it was 88800 nM. Besides, in the experiment filed under Rattus norvegicus, the Ratio Ki stood at 1700.

In [10], `Clc1ccc(N2CC3CCC(C2)N3)cn1` came in with an inhibition constant (Ki) of 0.95 nM.

As to `c1ccc(Nc2ccc(N3CC4CC(C3)N4)cn2)cc1`, the Ki in [1] came to 2.66 nM; in experiment [2], 475 nM. Further, the Ratio Ki in the experiment filed under Rattus norvegicus stood at 179.

As to `Clc1ccc(Nc2ccc(N3CC4CC(C3)N4)cn2)cc1`, the values for the inhibition constant (Ki) in experiment [1] and in experiment [2] were 2.49 nM and 823 nM, respectively. The Ratio Ki in the experiment filed under Rattus norvegicus amounted to 330.

With `c1cc2c(cc1Nc1ccc(N3CC4CC(C3)N4)cn1)OCO2`, the inhibition constant (Ki) in experiment [1] was 41 nM; in [2], 6150 nM. The Ratio Ki in the experiment filed under Rattus norvegicus is 150.

Take `FC(F)(F)c1ccc(Nc2ccc(N3CC4CC(C3)N4)nn2)cc1`: the figures for the Ratio Ki (in [3]; in the experiment filed under Rattus norvegicus) were 17 and 294, respectively. The Ki was 115 nM in experiment [4], 6.9 nM in experiment [1] and 2030 nM in experiment [2].
